From ChEMBL document CHEMBL1201862, “PubChem BioAssay data set” (2004)
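A five-concentration, 48-hour dose response in 96-well plates underlies each endpoint, interpolated linearly between surrounding concentrations. Here, GI50 denotes the concentration required for 50% inhibition of growth.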 Active and inactive are the calls of the source. Cut-off read from the data, not from the text of the source: active = GI50 up to about 1.1 µM and inactive = higher.

Assays:
Assay in all cases: DTP human tumour cell line panel, 48 h
SK-MEL-5 = test system: SK-MEL-5
M14 = test system: M14
OVCAR-4 = test system: OVCAR-4
SF-295 = test system: SF-295
KM12 = test system: KM12
DU-145 = test system: DU-145
EKVX = test system: EKVX
A549 = test system: A549
SR = test system: SR
COLO 205 = test system: COLO 205
HCC 2998 = test system: HCC 2998
OVCAR-5 = test system: OVCAR-5
PC-3 = test system: PC-3
OVCAR-8 = test system: OVCAR-8
K562 = test system: K562
UACC-257 = test system: UACC-257
HOP-62 = test system: HOP-62
SW-620 = test system: SW-620
HT-29 = test system: HT-29
SK-MEL-2 = test system: SK-MEL-2

| SMILES | GI50 (SK-MEL-5) | GI50 (M14) | GI50 (OVCAR-4) | GI50 (SF-295) | GI50 (KM12) | GI50 (DU-145) | GI50 (EKVX) | GI50 (A549) | GI50 (SR) | GI50 (COLO 205) | GI50 (HCC 2998) | GI50 (OVCAR-5) | GI50 (PC-3) | GI50 (OVCAR-8) | GI50 (K562) | GI50 (UACC-257) | GI50 (HOP-62) | GI50 (SW-620) | GI50 (HT-29) | GI50 (SK-MEL-2) |
| --- | --- | --- | --- | --- | --- | --- | --- | --- | --- | --- | --- | --- | --- | --- | --- | --- | --- | --- | --- | --- |
| CNC1Cc2c[nH]c3cccc(c23)C12C=C(C)C(=O)O2 (stereo not given) | > 100 µM (inactive) | > 100 µM (inactive) | > 100 µM (inactive) | > 100 µM (inactive) | > 100 µM (inactive) | > 100 µM (inactive) | > 100 µM (inactive) | > 100 µM (inactive) | 88.5 µM (inactive) | > 100 µM (inactive) | > 100 µM (inactive) | > 100 µM (inactive) | > 100 µM (inactive) | > 100 µM (inactive) | > 100 µM (inactive) | > 100 µM (inactive) | > 100 µM (inactive) | > 100 µM (inactive) | > 100 µM (inactive) | > 100 µM (inactive) |
| COc1cc(CNC(=O)CCCCCCCCCCSSCCCCCCCCCCC(=O)NCc2ccc(O)c(OC)c2)ccc1O | > 10 µM (inactive) | > 10 µM (inactive) | > 10 µM (inactive) | > 10 µM (inactive) | > 10 µM (inactive) | > 10 µM (inactive) | > 10 µM (inactive) | > 10 µM (inactive) | > 10 µM (inactive) | > 10 µM (inactive) | > 10 µM (inactive) | > 10 µM (inactive) | > 10 µM (inactive) | > 10 µM (inactive) | > 10 µM (inactive) | > 10 µM (inactive) | > 10 µM (inactive) | > 10 µM (inactive) | > 10 µM (inactive) | > 10 µM (inactive) |
| C[N+]12C=CC=C1C(N1CCCC1)c1scc(-c3ccc(Br)cc3)c12 (stereo not given) | 4.68 µM (inactive) | 27.7 µM (inactive) | 35.3 µM (inactive) | 6.4 µM (inactive) | 12.1 µM (inactive) | 33.7 µM (inactive) | 20.1 µM (inactive) | 74.1 µM (inactive) | 4.81 µM (inactive) | 12.5 µM (inactive) | 12.4 µM (inactive) | 42.1 µM (inactive) | 21 µM (inactive) | 4.11 µM (inactive) | 6.7 µM (inactive) | 7.36 µM (inactive) | 14.8 µM (inactive) | 41.2 µM (inactive) | 22.2 µM (inactive) | 6.18 µM (inactive) |
| S=C(N/N=C(/c1ccccc1)c1ccccn1)N1CCCCC1 | < 0.0249 µM (active) | 0.001 µM (active) | 1.5 µM (inactive) | < 0.031 µM (active) | < 0.0292 µM (active) | 0.618 µM (active) | < 0.0318 µM (active) | < 0.0302 µM (active) | < 0.0166 µM (active) | < 0.0214 µM (active) | 0.219 µM (active) | 0.0455 µM (active) | < 0.0151 µM (active) | < 0.0281 µM (active) | < 0.0161 µM (active) | < 0.0183 µM (active) | 0.0785 µM (active) | < 0.0226 µM (active) | < 0.016 µM (active) | 0.741 µM (active) |
| CN(C)C(=S)/N=c1\ssc(=S)n1Cc1ccccc1 | 0.217 µM (active) | 0.301 µM (active) | 3.42 µM (inactive) | 0.229 µM (active) | 0.24 µM (active) | 1.79 µM (inactive) | 2.15 µM (inactive) | 0.78 µM (active) | 0.129 µM (active) | 0.288 µM (active) | 0.57 µM (active) | 20 µM (inactive) | 0.249 µM (active) | 0.51 µM (active) | 0.206 µM (active) | 0.43 µM (active) | 0.546 µM (active) | 0.201 µM (active) | 0.308 µM (active) | 0.365 µM (active) |
